# Test results taken from patent US20090118330A1, “Diurea derivatives” (priority 2004, published 2009).
# Counter-ions that a name gives are not always drawn. Like-named read-outs stand apart in the source and are kept apart here.
# What was measured:
# Format in all cases: cell-based
# [1] = tested on: IL-2 production in human T-cells (CD4+); experiment: Inhibition of PMA/Ionomycin stimulated IL-2 production in human T-cells; settings: T-cell
# Description: The compounds to be evaluated were dissolved in DMSO and the dilution series of the compounds were prepared in DMSO. The series were further diluted in cell culture medium (RPMI 1640 with ultraglutamine, 10% foetal calf serum (FCS)) to obtain a final assay concentration of DMSO of 0.1% in 200 μl total volume. The compounds were plated (2 μl/well) on opaque white assay plates together with controls.
# Peripheral blood mononuclear cells (PBMC) were isolated from human blood drawn from healthy volunteers, by density gradient separation over Ficoll-Paque. T-cells (CD4+) were obtained with positive selection using magnetic cell sorting (MACS). The cells were resuspended at 1×10^6 cells/ml in cell culture medium (RPMI 1640 with ultraglutamine, 10% FCS, 10 mM hepes, 1 mM sodium pyruvate and 0.1 mg/ml gentamicin).
# The cells (1×10^5/well) were added to the assay plates containing the diluted compounds and pre-incubated for 30 min at 37° C. in a humidified atmosphere of 5% carbon dioxide. The cells were stimulated with 10 ng/ml phorbol myristate acetate (PMA) and 250 ng/ml ionomycin and the plates were incubated for 4 hours at 37° C. in a humidified atmosphere of 5% carbon dioxide. Approximately 100 μl of the supernatants were removed and transferred to a separate microtiter plate and the remaining cells were lysed (Nucleotide Releasing Reagent, ViaLight™, Cambrex). All the plates were kept at −20° C. pending analysis. Human interleukin-2 (IL-2) was analysed with a standard ELISA kit (OptEIA™, Pharmingen) according to the manufacturer's instructions. Viability was assessed by measuring adenosine triphosphate (ATP) content by adding luciferase (ATP monitoring reagent, ViaLight™, Cambrex) to the lysed cells and measuring luminescence, all according to the manufacturer's specifications.
# The % effect of each concentration of compound was calculated compared to non-treated stimulated cells. Non-linear regression, a modified Hill-plot (y=(a−d)/(1+(x/c)b)+d) was used to calculate the concentration for y=50% (IC50).
# [2] = tested on: IFN-γ production in human peripheral blood mononuclear cells; experiment: Inhibition of PMA/Ionomycin stimulated IFN-γ production in human PBMC; settings: mean±S.D., n=3
# [3] = tested on: IL-6 production in human peripheral blood mononuclear cells; experiment: Inhibition of PMA/Ionomycin stimulated IL-6 production in human PBMC; settings: mean±S.D., n=3
# [4] = tested on: TNF-α production in human peripheral blood mononuclear cells; experiment: Inhibition of PMA/Ionomycin stimulated TNF-α production in human PBMC; settings: mean±S.D., n=3
# [5] = tested on: human T-cells; experiment: Induction of apoptosis in human T-cells; settings: Annexin V, PARP cleavage, DNA fragmentation methods
# Description: The induction of apoptosis can be observed by measuring Annexin V-binding to cells (Van Engeland et al. 1998). Primary human CD4^+ T cells were isolated from peripheral blood from healthy volunteers as described above. Cells were cultured immediately after purification at a density of 2×10^6 cells/ml in RPMI 1640 medium supplemented with 10% FCS, Gentamycin (100 μg/ml), Hepes (10 mM) and Sodium Pyruvate (1 mM). Cells were stained with annexin V-FITC and propidium iodide by using the ApoAlert Annexin V-FITC Apoptosis Kit (Clontech) according to manufacturer's instructions. Flow cytometry analysis was performed using a FACScan (Becton Dickinson). […] Cell lysates were prepared by lysing 2×10^6 PBS-washed cells in 50 μl buffer containing 20 mM Tris-HCl, pH 7.7, 250 mM NaCl, 3 mM EDTA, 3 mM EGTA 0.5% NP-40 supplemented with 1 mM p-nitrophenyl phosphate (PNPP), 10 mM β-glycerophosphate, 100 μM Na-vanadate and 1 mM phenylmethansulfonyl fluoride (PMSF). The protein concentrations were determined by using Bio-Rads protein assay and thereafter equal amounts of protein was loaded onto precasted NuPAGE™ Tris-Bis gels (Novex). After electrophoresis, the proteins were transferred to nitrocellulose membrane and probed with a polyclonal rabbit antibody directed against PARP (Roche). […]
# [6] = mean, n = 2, read-out: IC50 IL-2
SMILES,"IC50 [1, 6] [nM]",further results
"O=C(NCCN(CCN1CCCC1)C(=O)Nc1ccc(Cl)cc1)Nc1ccc(Cl)cc1 [Compound C, 3-(4-Chloro-phenyl)-1-{2-[3-(4-chloro-phenyl)-ureido]-ethyl}-1-(2-pyrrolidin-1-yl-ethyl)-urea]",2000,
"O=C(NCCN(CCN1CCCCC1)C(=O)Nc1cccc(C(F)(F)F)c1)Nc1cccc(C(F)(F)F)c1 [Compound K, 1-(2-Piperidin-1-yl-ethyl)-3-(3-trifluoromethyl-phenyl)-1-{2-[3-(3-trifluoromethyl-phenyl)-ureido]-ethyl}-urea]",2000,
"O=C(NCCN(CCN1CCCCC1)C(=O)Nc1cccc(Cl)c1)Nc1cccc(C(F)(F)F)c1 [Compound D, 1-{2-[3-(3-Chloro-phenyl)-1-(2-piperidin-1-yl-ethyl)ureido]-ethyl}-3-(3-trifluoromethyl-phenyl)-urea]",2000,
"O=C(NCCN(CCN1CCCC1)C(=O)Nc1ccc(C(F)(F)F)cc1)Nc1ccc(C(F)(F)F)cc1 [Compound J, 1-(2-Pyrrolidin-1-yl-ethyl)-3-(4-trifluoromethyl-phenyl)-1-{2-[3-(4-trifluoromethyl-phenyl)-ureido]-ethyl}-urea]",3000,
"CN(C)CCN(CCNC(=O)Nc1ccc(Br)cc1)C(=O)Nc1ccc(Br)cc1 [Compound E, 3-(4-Bromo-phenyl)-1-{2-[3-(4-bromo-phenyl)-ureido]-ethyl}-1-(2-dimethylamino-ethyl)-urea]",1000,
"CCN(CC)CCN(CCNC(=O)Nc1cc(Cl)nc(Cl)c1)C(=O)Nc1ccc(Br)cc1 [Compound M, 1-{2-[3-(4-Bromo-phenyl)-1-(2-diethylamino-ethyl)ureido]-ethyl}-3-(2,6-dichloro-pyridin-4-yl)-urea]",2000,
"CCN(CC)CCN(CCNC(=O)Nc1ccccc1)C(=O)Nc1ccc(C(F)(F)F)cc1 [Compound F, 1-(2-Diethylamino-ethyl)-1-[2-(3-phenyl-ureido)-ethyl]-3-(4-trifluoromethyl-phenyl)-urea]",3000,
"CCN(CC)CCN(CCNC(=O)Nc1cccc(C(F)(F)F)c1)C(=O)Nc1cccc(C(F)(F)F)c1.Cl [Compound A, 1-(2-Diethylamino-ethyl)-3-(3-trifluoromethyl-phenyl)-1-{2-[3-(3-trifluoromethyl-phenyl)-ureido]-ethyl}-urea, hydrochloride]",2000,"IC50 [2]: 4000 ± 1000 nM; IC50 [3]: 3000 ± 1000 nM; IC50 ([1]; mean±S.D., n=30, read-out: IC50 of IL-2 production): 2000 ± 1000 nM; IC50 [4]: 3000 ± 1000 nM; concentration at which significant apoptosis induction was observed [5]: > 4 µM"
"O=C(NCCN(CCN1CCCC1)C(=O)Nc1ccc(C(F)(F)F)cc1)Nc1ccc2ncccc2c1 [Compound I, 1-{2-[1-(2-Pyrrolidin-1-yl-ethyl)-3-(4-trifluoromethylphenyl)-ureido]-ethyl}-3-quinolin-6-yl-urea]",5000,
"CN(C)CCN(CCNC(=O)Nc1ccc(Cl)cc1)C(=O)Nc1ccc(C(F)(F)F)cc1 [Compound L, 1-{2-[3-(4-Chloro-phenyl)-ureido]-ethyl}-1-(2-dimethylamino-ethyl)-3-(4-trifluoromethyl-phenyl)-urea, hydrochloride]",2000,
"O=C(NCCN(CCN1CCCCC1)C(=O)Nc1ccc(C(F)(F)F)cc1)Nc1cccc(C(F)(F)F)c1 [Compound G, 1-(2-Piperidin-1-yl-ethyl)-3-(4-trifluoromethyl-phenyl)-1-{2-[3-(3-trifluoromethyl-phenyl)-ureido]-ethyl}-urea]",1000,
"CCN(CC)CCN(CCNC(=O)Nc1cccc(C(F)(F)F)c1)C(=O)Nc1ccc(C(F)(F)F)cc1 [Compound B, 1-(2-Diethylamino-ethyl)-3-(4-trifluoromethyl-phenyl)-1-{2-[3-(3-trifluoromethyl-phenyl)-ureido]-ethyl}-urea]",2000,
"O=C(NCCN(CCN1CCCC1)C(=O)Nc1ccc(C(F)(F)F)cc1)Nc1cccc(C(F)(F)F)c1 [Compound H, 1-{2-[1-(2-Pyrrolidin-1-yl-ethyl)-3-(4-trifluoromethylphenyl)-ureido]-ethyl}-3-(3-trifluoromethyl-phenyl)-urea]",1000,
